According to ChEMBL document CHEMBL4007425, “Drug Repurposing of Histone Deacetylase Inhibitors That Alleviate Neutrophilic Inflammation in Acute Lung Injury and Idiopathic Pulmonary Fibrosis via Inhibiting Leukotriene A4 Hydrolase and Blocking LTB4 Biosynthesis” (J Med Chem, 2017):
The source made the active and inactive calls. The calls are words filed in the database; no cut-off is given here.

How the values were obtained:
Mus musculus [1] = assay: Protection against BLM-induced lung fibrosis in C57BL/6 mouse assessed as TGF-beta1 level at 10 and 25 mg/kg, ip qd for 7 days post BLM challenge measured on day 7 by qRT-PCR method; type: functional, organism-based
[2] = biological target: T1, Leukotriene A-4 hydrolase (LTA4H) aminopeptidase activity (Homo sapiens, UniProt P09960); assay: Inhibition of recombinant human LTA4H aminopeptidase activity expressed in Escherichia coli BL21 (DE3) pLysS assessed as formation of p-NA from Ala-p-NA at 10 uM preincubated for 10 mins followed by substrate addition measured after 10 mins
T1 sequence (P09960 whole entry): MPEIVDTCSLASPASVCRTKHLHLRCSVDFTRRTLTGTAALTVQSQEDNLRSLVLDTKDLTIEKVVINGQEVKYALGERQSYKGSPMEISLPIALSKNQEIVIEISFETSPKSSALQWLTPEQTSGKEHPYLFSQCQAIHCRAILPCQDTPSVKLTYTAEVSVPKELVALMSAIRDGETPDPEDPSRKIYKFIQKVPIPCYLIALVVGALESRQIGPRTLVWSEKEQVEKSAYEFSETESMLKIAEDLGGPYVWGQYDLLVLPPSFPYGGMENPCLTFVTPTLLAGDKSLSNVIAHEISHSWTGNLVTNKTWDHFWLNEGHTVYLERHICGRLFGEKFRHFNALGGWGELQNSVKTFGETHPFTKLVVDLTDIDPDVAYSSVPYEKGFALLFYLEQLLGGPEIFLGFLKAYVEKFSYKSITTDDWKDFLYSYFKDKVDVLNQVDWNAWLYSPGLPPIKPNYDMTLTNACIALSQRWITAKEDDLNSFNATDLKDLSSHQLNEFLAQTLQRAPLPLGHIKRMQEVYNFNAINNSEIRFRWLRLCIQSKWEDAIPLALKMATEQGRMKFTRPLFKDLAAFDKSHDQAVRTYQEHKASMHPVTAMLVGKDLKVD

[3] = biological target: T2, Polyunsaturated fatty acid lipoxygenase ALOX12 (Homo sapiens) (UniProt P18054); assay: Inhibition of recombinant human N-terminal His-tagged 12-LOX expressed in Escherichia coli assessed as conversion of arachidonic acid to HETEs measured for 300 secs by UV-visible spectrophotometric analysis
T2 sequence (whole entry): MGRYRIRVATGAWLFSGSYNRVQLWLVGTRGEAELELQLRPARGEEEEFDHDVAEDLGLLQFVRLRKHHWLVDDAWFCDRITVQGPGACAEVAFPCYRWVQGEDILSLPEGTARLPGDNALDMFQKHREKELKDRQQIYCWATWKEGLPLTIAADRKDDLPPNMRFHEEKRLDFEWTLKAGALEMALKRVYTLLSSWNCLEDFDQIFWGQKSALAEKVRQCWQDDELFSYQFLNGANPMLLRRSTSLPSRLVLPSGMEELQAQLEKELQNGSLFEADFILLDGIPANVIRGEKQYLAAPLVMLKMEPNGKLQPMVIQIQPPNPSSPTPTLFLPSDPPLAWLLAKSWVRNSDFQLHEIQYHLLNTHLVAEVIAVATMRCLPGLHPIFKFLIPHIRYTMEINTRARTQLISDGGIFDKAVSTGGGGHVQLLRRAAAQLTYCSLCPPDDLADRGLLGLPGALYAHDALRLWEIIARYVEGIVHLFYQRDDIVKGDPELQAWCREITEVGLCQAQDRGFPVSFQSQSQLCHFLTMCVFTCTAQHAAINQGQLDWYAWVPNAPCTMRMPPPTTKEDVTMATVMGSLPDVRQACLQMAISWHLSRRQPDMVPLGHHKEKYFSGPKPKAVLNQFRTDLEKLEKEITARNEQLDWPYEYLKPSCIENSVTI

Mus musculus [4] = assay: Anti-inflammatory activity in BLM-induced C57BL/6 mouse model of acute lung neutrophilic inflammation assessed as reduction in number of lymphocytes in BALF at 10 and 25 mg/kg, ip qd for 7 days post BLM challenge measured on day 7; type: functional, organism-based
Mus musculus [5] = assay: Anti-inflammatory activity in BLM-induced C57BL/6 mouse model of acute lung neutrophilic inflammation assessed as reduction in total cell number in BALF at 10 and 25 mg/kg, ip qd for 7 days post BLM challenge measured on day 7; type: functional, organism-based
[6] = biological target: T3, Leukotriene A-4 hydrolase (Mus musculus, UniProt P24527); assay: Inhibition of LTA4H in C57BL/6 mouse assessed as reduction in LTB4 production pre-incubated for 30 mins before 5-(methylamino)-2-({(2R,3R,6S,8S,9R,11R)-3,9,11-trimethyl-8-[(1S)-1-methyl-2-oxo-2-(1H-pyrrol-2-yl)ethyl]-1,7-dioxaspiro[5.5]undec-2-yl}methyl)-1,3-benzoxazole-4-carboxylic acid stimulation for 30 mins by ELISA
T3 sequence (P24527 whole entry): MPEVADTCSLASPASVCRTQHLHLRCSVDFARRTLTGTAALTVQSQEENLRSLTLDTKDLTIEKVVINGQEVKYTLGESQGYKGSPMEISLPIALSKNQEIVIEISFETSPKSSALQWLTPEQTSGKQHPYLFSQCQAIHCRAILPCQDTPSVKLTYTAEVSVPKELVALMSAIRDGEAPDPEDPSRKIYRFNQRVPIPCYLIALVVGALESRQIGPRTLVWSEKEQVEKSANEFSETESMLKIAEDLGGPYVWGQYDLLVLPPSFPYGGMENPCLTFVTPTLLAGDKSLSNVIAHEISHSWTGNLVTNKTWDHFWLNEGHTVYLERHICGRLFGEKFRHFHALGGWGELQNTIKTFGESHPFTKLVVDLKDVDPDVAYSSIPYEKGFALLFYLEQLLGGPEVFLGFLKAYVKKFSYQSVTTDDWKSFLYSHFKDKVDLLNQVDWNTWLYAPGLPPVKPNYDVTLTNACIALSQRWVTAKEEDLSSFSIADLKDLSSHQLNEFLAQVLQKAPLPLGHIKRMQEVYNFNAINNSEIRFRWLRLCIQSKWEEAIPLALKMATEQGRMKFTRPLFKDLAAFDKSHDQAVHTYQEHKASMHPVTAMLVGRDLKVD

[7] = biological target: T4, Leukotriene A-4 hydrolase (Homo sapiens) (UniProt P09960); details: at 10 µM
T4 sequence (whole entry): T1 sequence (P09960 whole entry)
Description: Inhibition of recombinant human LTA4H Epoxide Hydrolase expressed in Escherichia coli BL21 (DE3) pLysS at 10 uM preincubated for 10 mins followed by addition of LTA4 as substrate measured after 15 mins by reverse-phase HPLC analysis

Mus musculus [8] = assay: Anti-inflammatory activity in LPS-induced C57BL/6 mouse model of acute lung injury assessed as reduction in pulmonary edema by measuring lung wet/dry ratio at 25 mg/kg, ip pretreated for 1 hr followed LPS challenge after 24 hrs […]; type: functional, organism-based
[9] = biological target: T5, Leukotriene A-4 hydrolase (Homo sapiens, UniProt P09960); assay: Inhibition of recombinant human LTA4H aminopeptidase activity expressed in Escherichia coli BL21 (DE3) pLysS assessed as formation of p-NA from Ala-p-NA preincubated for 10 mins followed by substrate addition measured after 10 mins; type: ADME
T5 sequence (P09960 whole entry): T1 sequence (P09960 whole entry)

Mus musculus [10] = assay: Anti-inflammatory activity in LPS-induced C57BL/6 mouse model of acute lung injury assessed as reduction in total number of leucocytes in BALF at 25 mg/kg, ip pretreated for 1 hr followed LPS challenge measured after 24 hrs; type: functional, organism-based
Mus musculus [11] = assay: Anti-inflammatory activity in LPS-induced C57BL/6 mouse model of acute lung injury assessed as reduction in lung lesions at 10 to 50 mg/kg, ip pretreated for 1 hr followed LPS challenge measured after 24 hrs by hematoxylin and eosin staining based microscopy; type: functional, organism-based

| SMILES | Activity (Mus musculus [1]) | inhibition at 10 min, 10 µM ([2]; probe Ala-p-NA) | INH [3] | Activity (Mus musculus [4]) | Activity (Mus musculus [5]) | IC50 [6] | inhibition [7] | Activity (Mus musculus [8]) | IC50 [9] | Activity (Mus musculus [10]) | inhibition at 10 min, 10 µM [2] | Activity (Mus musculus [11]) |
| --- | --- | --- | --- | --- | --- | --- | --- | --- | --- | --- | --- | --- |
| CN(C)c1ccc(C(=O)NCCCCCCC(=O)NO)cc1 | Active | > 50% | > 50 µM | Active | Active | 0.79 µM | > 50% | Active | 0.3 µM | Active |  |  |
| O=C(CCCCCCC(=O)Nc1ccccc1)NO [VORINOSTAT] |  |  | > 50 µM | Active |  | 6.15 µM | > 50% | Active | 1.67 µM | Active | > 50% | Active |
